Assays:
Assay type in all cases: in vivo
[1] = tested on: velvetleaf (Abutilon theophrasti, ABUTH); assay: Post-emerge test, greenhouse herbicide activity screening; conditions: post-emerge, 14 days after application, rating scale 0-100
Outline: (§1)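 Applied at 15–1000 g ai/ha from acetone in 187 l/ha spray volume. Post-emergence applications included 0.25% v/v non-ionic surfactant and reached plants sown 8–21 days before. Pre-emergence applications were incorporated by surface watering. Efficacy or crop damage was rated on a 0–100 scale after 14 days.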

[2] = tested on: ivyleaf morningglory (Ipomoea hederacea, IPOHE); assay: as above; conditions: post-emerge, 14 days after application, rating scale 0-100
Outline: as §1

[3] = tested on: large crabgrass (Digitaria sanguinalis, DIGSA); assay: as above; conditions: post-emerge, 14 days after application, rating scale 0-100
Outline: as §1

[4] = tested on: green foxtail (Setaria viridis, SETVI); assay: as above; conditions: post-emerge, 14 days after application, rating scale 0-100
Outline: as §1

[5] = tested on: barnyardgrass (Echinochloa crus-galli, ECHCG); assay: as above; conditions: post-emerge, 14 days after application, rating scale 0-100
Outline: as §1

[6] = tested on: johnsongrass (Sorghum halepense, SORHA); assay: as above; conditions: post-emerge, 14 days after application, rating scale 0-100
Outline: as §1

[7] = tested on: redroot pigweed (Amaranthus retroflexus, AMARE); assay: as above; conditions: post-emerge, 14 days after application
Outline: as §1

[8] = tested on: sicklepod (Cassia obtusifolia, CASOB); assay: as above; conditions: post-emerge, 14 days after application, rating scale 0-100
Outline: as §1

[9] = tested on: velvetleaf (Abutilon theophrasti, ABUTH); assay: Pre-emerge test, greenhouse herbicide activity screening; conditions: for phytotoxicity rating ABUTH: pre-emerge, 14 days after application, rating scale 0-100; for Pre-emerge Herbicidal Activity, phytotoxicity rating (0-100), ABUTH: rated 14 days after application, 0 = no damage, 100 = complete death
Outline: (§2)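 Fourteen days after spraying, crop and weed injury was graded visually from 0, no effect, to 100, every plant dead. Test substances were dissolved in acetone and applied at 15–1000 g ai/ha with a flat-fan nozzle. Application was either pre-emergence, one day after sowing, or post-emergence at the 2–3 leaf stage.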

[10] = tested on: ivyleaf morningglory (Ipomoea hederacea, IPOHE); assay: as above; conditions: for phytotoxicity rating IPOHE: pre-emerge, 14 days after application, rating scale 0-100; for Pre-emerge Herbicidal Activity, phytotoxicity rating (0-100), IPOHE: rated 14 days after application, 0 = no damage, 100 = complete death
Outline: as §2

[11] = tested on: large crabgrass (Digitaria sanguinalis, DIGSA); assay: as above; conditions: for phytotoxicity rating DIGSA: pre-emerge, 14 days after application, rating scale 0-100; for Pre-emerge Herbicidal Activity, phytotoxicity rating (0-100), DIGSA: rated 14 days after application, 0 = no damage, 100 = complete death
Outline: as §2

[12] = tested on: lambsquarters (Chenopodium album, CHEAL); assay: as above; conditions: for phytotoxicity rating CHEAL: pre-emerge, 14 days after application, rating scale 0-100; for Pre-emerge Herbicidal Activity, phytotoxicity rating (0-100), CHEAL: rated 14 days after application, 0 = no damage, 100 = complete death
Outline: as §2

[13] = tested on: green foxtail (Setaria viridis, SETVI); assay: as above; conditions: for phytotoxicity rating SETVI: pre-emerge, 14 days after application, rating scale 0-100; for Pre-emerge Herbicidal Activity, phytotoxicity rating (0-100), SETVI: rated 14 days after application, 0 = no damage, 100 = complete death
Outline: as §2

[14] = tested on: barnyardgrass (Echinochloa crus-galli, ECHCG); assay: as above; conditions: for phytotoxicity rating ECHCG: pre-emerge, 14 days after application, rating scale 0-100; for Pre-emerge Herbicidal Activity, phytotoxicity rating (0-100), ECHCG: rated 14 days after application, 0 = no damage, 100 = complete death
Outline: as §2

[15] = tested on: johnsongrass (Sorghum halepense, SORHA); assay: as above; conditions: for phytotoxicity rating SORHA: pre-emerge, 14 days after application, rating scale 0-100; for Pre-emerge Herbicidal Activity, phytotoxicity rating (0-100), SORHA: rated 14 days after application, 0 = no damage, 100 = complete death
Outline: as §2

[16] = tested on: sicklepod (Cassia obtusifolia, CASOB); assay: as above; conditions: for phytotoxicity rating CASOB: pre-emerge, 14 days after application, rating scale 0-100; for Pre-emerge Herbicidal Activity, phytotoxicity rating (0-100), CASOB: rated 14 days after application, 0 = no damage, 100 = complete death
Outline: as §2

[17] = tested on: upland rice (Oryza sp., var. Tebonnet, RICE); assay: Post-emerge test, crop safety; conditions: post-emerge, 14 days after application, rating scale 0-100
Outline: as §2

[18] = tested on: field corn (Zea mays L., var. Dekalb 535, CORN); assay: Post-emerge test, crop safety; conditions: post-emerge, 14 days after application, rating scale 0-100
Outline: as §2

[19] = tested on: redroot pigweed (Amaranthus retroflexus, AMARE); assay: Pre-emerge test, greenhouse herbicide activity screening; conditions: for phytotoxicity rating AMARE: pre-emerge, 14 days after application, rating scale 0-100; for Pre-emerge Herbicidal Activity, phytotoxicity rating (0-100), AMARE: rated 14 days after application, 0 = no damage, 100 = complete death
Outline: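 Plants grown in 10 cm pots of sandy loam mix received acetone-dissolved compounds through a moving flat-fan nozzle. Doses ranged from 15 to 1000 g ai/ha. Pre-emerge pots were seeded one day earlier, post-emerge pots 8–21 days earlier. Fourteen days on, each pot was graded 0–100 for damage.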

[20] = tested on: upland rice (Oryza sp., var. Tebonnet, RICE); assay: Pre-emerge test, crop safety; conditions: for phytotoxicity rating RICE: pre-emerge, 14 days after application, rating scale 0-100; for Pre-emerge phytotoxicity rating (0-100), crop damage, RICE: rated 14 days after application, 0 = no damage, 100 = complete death
Outline: (§3)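 Sandy loam pots; pre-emerge: sown 1 d pre-spray, surface-watered after, then bottom-watered. Post-emerge: sown 8–21 d before, 2–3 leaf stage, + 0.25% v/v NIS, bottom-watered. Acetone, 187 l/ha track spray, 15–1000 g ai/ha. 0–100 injury score, day 14.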

[21] = tested on: field corn (Zea mays L., var. Dekalb 535, CORN); assay: Pre-emerge test, crop safety; conditions: for phytotoxicity rating CORN: pre-emerge, 14 days after application, rating scale 0-100; for Pre-emerge phytotoxicity rating (0-100), crop damage, CORN: rated 14 days after application, 0 = no damage, 100 = complete death
Outline: as §3

[22] = 250 g ai/ha, rating scale 0-100

COc1c(Cl)cc(F)c(-n2c(=O)cc(C(F)(F)F)n(C)c2=O)c1NN=CC(C)c1ccccc1 (stereo not drawn) [15-17]
90: Post-emerge Herbicidal Activity SETVI (phytotoxicity rating) ([4]; 250 g ai/ha) | Post-emerge Herbicidal Activity AMARE (phytotoxicity rating) ([7]; 63 g ai/ha, rating scale 0-100 (0 no damage, 100 complete death)) | Post-emerge Herbicidal Activity RICE (crop damage rating) ([17]; 250 g ai/ha)
100: Post-emerge Herbicidal Activity ABUTH (phytotoxicity rating) ([1]; 63 g ai/ha) | Post-emerge Herbicidal Activity ABUTH (phytotoxicity rating) ([1]; 250 g ai/ha) | Post-emerge Herbicidal Activity IPOHE (phytotoxicity rating) ([2]; 63 g ai/ha) | Post-emerge Herbicidal Activity IPOHE (phytotoxicity rating) ([2]; 250 g ai/ha) | Post-emerge Herbicidal Activity AMARE (phytotoxicity rating) [7, 22] | Post-emerge Herbicidal Activity CASOB (phytotoxicity rating) ([8]; 250 g ai/ha) | phytotoxicity rating ABUTH ([9]; 63 g ai/ha) | phytotoxicity rating ABUTH ([9]; 250 g ai/ha) | phytotoxicity rating IPOHE ([10]; 63 g ai/ha) | phytotoxicity rating IPOHE ([10]; 250 g ai/ha) | phytotoxicity rating DIGSA ([11]; 63 g ai/ha) | phytotoxicity rating DIGSA ([11]; 250 g ai/ha) | phytotoxicity rating CHEAL ([12]; 63 g ai/ha) | phytotoxicity rating CHEAL ([12]; 250 g ai/ha) | phytotoxicity rating SETVI ([13]; 63 g ai/ha) | phytotoxicity rating SETVI ([13]; 250 g ai/ha) | phytotoxicity rating ECHCG ([14]; 63 g ai/ha) | phytotoxicity rating ECHCG ([14]; 250 g ai/ha) | phytotoxicity rating SORHA ([15]; 63 g ai/ha) | phytotoxicity rating SORHA ([15]; 250 g ai/ha) | phytotoxicity rating CASOB ([16]; 63 g ai/ha) | phytotoxicity rating CASOB ([16]; 250 g ai/ha) | phytotoxicity rating AMARE ([19]; 63 g ai/ha) | phytotoxicity rating AMARE ([19]; 250 g ai/ha) | phytotoxicity rating RICE ([20]; 63 g ai/ha) | phytotoxicity rating RICE ([20]; 250 g ai/ha)
50: Post-emerge Herbicidal Activity ECHCG (phytotoxicity rating) ([5]; 63 g ai/ha)
75: Post-emerge Herbicidal Activity RICE (crop damage rating) ([17]; 63 g ai/ha)
80: Post-emerge Herbicidal Activity CASOB (phytotoxicity rating) ([8]; 63 g ai/ha) | Post-emerge Herbicidal Activity CORN (crop damage rating) ([18]; 250 g ai/ha) | phytotoxicity rating CORN ([21]; 63 g ai/ha)
95: Post-emerge Herbicidal Activity SORHA (phytotoxicity rating) ([6]; 250 g ai/ha) | phytotoxicity rating CORN ([21]; 250 g ai/ha)
99: Post-emerge Herbicidal Activity DIGSA (phytotoxicity rating) ([3]; 250 g ai/ha) | Post-emerge Herbicidal Activity ECHCG (phytotoxicity rating) ([5]; 250 g ai/ha)
40: Post-emerge Herbicidal Activity DIGSA (phytotoxicity rating) ([3]; 63 g ai/ha) | Post-emerge Herbicidal Activity SETVI (phytotoxicity rating) ([4]; 63 g ai/ha)
35: Post-emerge Herbicidal Activity CORN (crop damage rating) ([18]; 63 g ai/ha)
20: Post-emerge Herbicidal Activity SORHA (phytotoxicity rating) ([6]; 63 g ai/ha)

COc1c(Cl)cc(F)c(-n2c(=O)cc(C(F)(F)F)n(C)c2=O)c1NC(=O)COC(C)=O [2-117]
100: phytotoxicity rating ABUTH ([1]; 250 g ai/ha) | phytotoxicity rating IPOHE ([2]; 250 g ai/ha) | Pre-emerge Herbicidal Activity, phytotoxicity rating (0-100), ABUTH ([9]; 63 g ai/ha) | Pre-emerge Herbicidal Activity, phytotoxicity rating (0-100), ABUTH ([9]; 250 g ai/ha) | Pre-emerge Herbicidal Activity, phytotoxicity rating (0-100), IPOHE ([10]; 63 g ai/ha) | Pre-emerge Herbicidal Activity, phytotoxicity rating (0-100), IPOHE ([10]; 250 g ai/ha) | Pre-emerge Herbicidal Activity, phytotoxicity rating (0-100), CHEAL ([12]; 63 g ai/ha) | Pre-emerge Herbicidal Activity, phytotoxicity rating (0-100), CHEAL ([12]; 250 g ai/ha) | Pre-emerge Herbicidal Activity, phytotoxicity rating (0-100), SETVI ([13]; 250 g ai/ha) | Pre-emerge Herbicidal Activity, phytotoxicity rating (0-100), CASOB ([16]; 250 g ai/ha) | Pre-emerge Herbicidal Activity, phytotoxicity rating (0-100), AMARE ([19]; 250 g ai/ha)
0: phytotoxicity rating DIGSA ([3]; 63 g ai/ha) | phytotoxicity rating DIGSA ([3]; 250 g ai/ha) | phytotoxicity rating SETVI ([4]; 63 g ai/ha) | phytotoxicity rating SETVI ([4]; 250 g ai/ha) | phytotoxicity rating ECHCG ([5]; 63 g ai/ha) | phytotoxicity rating ECHCG ([5]; 250 g ai/ha) | phytotoxicity rating SORHA ([6]; 63 g ai/ha) | phytotoxicity rating SORHA ([6]; 250 g ai/ha)
20: phytotoxicity rating CORN ([18]; 250 g ai/ha)
5: phytotoxicity rating CORN ([18]; 63 g ai/ha)
40: phytotoxicity rating CASOB ([8]; 63 g ai/ha) | phytotoxicity rating RICE ([17]; 250 g ai/ha)
60: Pre-emerge Herbicidal Activity, phytotoxicity rating (0-100), SORHA ([15]; 250 g ai/ha)
80: phytotoxicity rating ABUTH ([1]; 63 g ai/ha) | Pre-emerge Herbicidal Activity, phytotoxicity rating (0-100), CASOB ([16]; 63 g ai/ha)
30: Pre-emerge Herbicidal Activity, phytotoxicity rating (0-100), DIGSA ([11]; 63 g ai/ha) | Pre-emerge Herbicidal Activity, phytotoxicity rating (0-100), SETVI ([13]; 63 g ai/ha) | Pre-emerge phytotoxicity rating (0-100), crop damage, RICE ([20]; 63 g ai/ha)
95: phytotoxicity rating CASOB ([8]; 250 g ai/ha)
70: phytotoxicity rating AMARE [7, 22] | Pre-emerge Herbicidal Activity, phytotoxicity rating (0-100), ECHCG ([14]; 250 g ai/ha)
90: phytotoxicity rating IPOHE ([2]; 63 g ai/ha) | Pre-emerge Herbicidal Activity, phytotoxicity rating (0-100), DIGSA ([11]; 250 g ai/ha) | Pre-emerge Herbicidal Activity, phytotoxicity rating (0-100), AMARE ([19]; 63 g ai/ha) | Pre-emerge phytotoxicity rating (0-100), crop damage, RICE ([20]; 250 g ai/ha)
35: Pre-emerge phytotoxicity rating (0-100), crop damage, CORN ([21]; 250 g ai/ha)
10: phytotoxicity rating AMARE ([7]; 63 g ai/ha, rating scale 0-100) | Pre-emerge Herbicidal Activity, phytotoxicity rating (0-100), ECHCG ([14]; 63 g ai/ha) | Pre-emerge Herbicidal Activity, phytotoxicity rating (0-100), SORHA ([15]; 63 g ai/ha) | phytotoxicity rating RICE ([17]; 63 g ai/ha) | Pre-emerge phytotoxicity rating (0-100), crop damage, CORN ([21]; 63 g ai/ha)

Source: patent US6355799B1, “Substituted benzene compounds, process for their preparation, and herbicidal and defoliant compositions containing them” (ISK Americas Incorporated, priority 1997, dated 2002)
